{"source": "patent US11911361B2", "about": "“Stable cannabinoid formulations” (priority 2014, dated 2024)", "key": {"[1]": {"assay": "Pharmacokinetic food-effect study, single 20 mg/kg dose, healthy subjects (Example 17)", "details": "7-OH-cannabidiol; for ln(AUC0-inf) Geometric Mean / ln(AUC0-t) Geometric Mean / ln(Cmax) Geometric Mean: least squares geometric mean; for AUC0 / AUC0-0.25 / AUC0-0.5 / AUC0-0.75 / AUC0-1 / AUC0-1.5 / AUC0-2 / AUC0-2.5 / AUC0-3 / AUC0-4 / AUC0-6 / AUC0-8 / AUC0-12 / AUC0-16 / AUC0-24 / AUC0-36 / AUC0-48 / AUC0-72 / AUC0-96 / AUC0-120: single 20 mg/kg cannabidiol oral, mean ± SD; for AUC(0-inf) / AUC(0-t) / AUCextrap / Clast / Cmax / Tlast / t1/2 / λz / Tmax: single 20 mg/kg oral dose of cannabidiol solution; for AUC(0-inf) / AUC(0-t) / AUCextrap / Clast / Cmax / Tlast / t1/2 / λz: mean; for Tmax: median (min, max)"}, "[2]": {"system": "paclitaxel-induced mechanical sensitivity", "assay": "Paclitaxel induced neuropathic pain study (Von Frey mechanical sensitivity)", "format": "in vivo, mice"}, "[3]": {"details": "20 mg/kg cannabidiol oral, Fasted"}, "[4]": {"details": "20 mg/kg cannabidiol oral, geometric mean (fed)/geometric mean (fasted)"}}, "data": [{"compound": "C=C(C)[C@@H]1CCC(CO)=C[C@H]1c1c(O)cc(CCCCC)cc1O", "note": "[Formulation 7-OH-cannabidiol]", "values": [{"measurement": "ln(AUC0-inf) Geometric Mean", "setting": "[1]; [3]", "value": 657.5873}, {"measurement": "ln(AUC0-t) Geometric Mean", "setting": "[1]; [3]", "value": 630.3322}, {"measurement": "ln(Cmax) Geometric Mean", "setting": "[1]; [3]", "value": 34.8933}, {"measurement": "ln(AUC0-inf) Geometric Mean", "setting": "[1]; 20 mg/kg cannabidiol oral, Fed", "value": 4701.4345}, {"measurement": "ln(AUC0-t) Geometric Mean", "setting": "[1]; 20 mg/kg cannabidiol oral, Fed", "value": 4610.3024}, {"measurement": "ln(Cmax) Geometric Mean", "setting": "[1]; 20 mg/kg cannabidiol oral, Fed", "value": 442.6751}, {"measurement": "ln(AUC0-inf) Ratio (%) (Fed/Fasted)", "setting": "[1]; [4]", "value": 714.95, "unit": "%"}, {"measurement": "ln(AUC0-t) Ratio (%) (Fed/Fasted)", "setting": "[1]; [4]", "value": 731.41, "unit": "%"}, {"measurement": "ln(Cmax) Ratio (%) (Fed/Fasted)", "setting": "[1]; [4]", "value": 1268.65, "unit": "%"}, {"measurement": "AUC0", "setting": "[1]; fasted", "value": "0.114 ± 0.410", "unit": "ng·h/mL"}, {"measurement": "AUC0-0.25", "setting": "[1]; fasted", "value": "0.101 ± 0.363", "unit": "ng·h/mL"}, {"measurement": "AUC0-0.5", "setting": "[1]; fasted", "value": "0.217 ± 0.361", "unit": "ng·h/mL"}, {"measurement": "AUC0-0.75", "setting": "[1]; fasted", "value": "0.954 ± 0.843", "unit": "ng·h/mL"}, {"measurement": "AUC0-1", "setting": "[1]; fasted", "value": "2.29 ± 2.13", "unit": "ng·h/mL"}, {"measurement": "AUC0-1.5", "setting": "[1]; fasted", "value": "3.91 ± 3.90", "unit": "ng·h/mL"}, {"measurement": "AUC0-2", "setting": "[1]; fasted", "value": "5.46 ± 5.23", "unit": "ng·h/mL"}, {"measurement": "AUC0-2.5", "setting": "[1]; fasted", "value": "6.81 ± 6.85", "unit": "ng·h/mL"}, {"measurement": "AUC0-3", "setting": "[1]; fasted", "value": "7.83 ± 8.27", "unit": "ng·h/mL"}, {"measurement": "AUC0-4", "setting": "[1]; fasted", "value": "8.65 ± 8.64", "unit": "ng·h/mL"}, {"measurement": "AUC0-6", "setting": "[1]; fasted", "value": "9.79 ± 7.71", "unit": "ng·h/mL"}, {"measurement": "AUC0-8", "setting": "[1]; fasted", "value": "18.5 ± 34.2", "unit": "ng·h/mL"}, {"measurement": "AUC0-12", "setting": "[1]; fasted", "value": "10.1 ± 8.36", "unit": "ng·h/mL"}, {"measurement": "AUC0-16", "setting": "[1]; fasted", "value": "7.23 ± 4.28", "unit": "ng·h/mL"}, {"measurement": "AUC0-24", "setting": "[1]; fasted", "value": "6.09 ± 2.70", "unit": "ng·h/mL"}, {"measurement": "AUC0-36", "setting": "[1]; fasted", "value": "4.39 ± 2.45", "unit": "ng·h/mL"}, {"measurement": "AUC0-48", "setting": "[1]; fasted", "value": "3.00 ± 1.91", "unit": "ng·h/mL"}, {"measurement": "AUC0-72", "setting": "[1]; fasted", "value": "1.65 ± 1.38", "unit": "ng·h/mL"}, {"measurement": "AUC0-96", "setting": "[1]; fasted", "value": "1.04 ± 1.11", "unit": "ng·h/mL"}, {"measurement": "AUC0-120", "setting": "[1]; fasted", "value": "0.511 ± 0.799", "unit": "ng·h/mL"}, {"measurement": "AUC0", "setting": "[1]; fed", "value": "0.131 ± 0.537", "unit": "ng·h/mL"}, {"measurement": "AUC0-0.25", "setting": "[1]; fed", "value": "0.221 ± 0.676", "unit": "ng·h/mL"}, {"measurement": "AUC0-0.5", "setting": "[1]; fed", "value": "0.980 ± 1.29", "unit": "ng·h/mL"}, {"measurement": "AUC0-0.75", "setting": "[1]; fed", "value": "2.87 ± 4.21", "unit": "ng·h/mL"}, {"measurement": "AUC0-1", "setting": "[1]; fed", "value": "7.33 ± 11.7", "unit": "ng·h/mL"}, {"measurement": "AUC0-1.5", "setting": "[1]; fed", "value": "47.5 ± 78.5", "unit": "ng·h/mL"}, {"measurement": "AUC0-2", "setting": "[1]; fed", "value": "104 ± 150", "unit": "ng·h/mL"}, {"measurement": "AUC0-2.5", "setting": "[1]; fed", "value": "158 ± 202", "unit": "ng·h/mL"}, {"measurement": "AUC0-3", "setting": "[1]; fed", "value": "197 ± 235", "unit": "ng·h/mL"}, {"measurement": "AUC0-4", "setting": "[1]; fed", "value": "289 ± 290", "unit": "ng·h/mL"}, {"measurement": "AUC0-6", "setting": "[1]; fed", "value": "346 ± 188", "unit": "ng·h/mL"}, {"measurement": "AUC0-8", "setting": "[1]; fed", "value": "284 ± 128", "unit": "ng·h/mL"}, {"measurement": "AUC0-12", "setting": "[1]; fed", "value": "187 ± 121", "unit": "ng·h/mL"}, {"measurement": "AUC0-16", "setting": "[1]; fed", "value": "85.7 ± 36.9", "unit": "ng·h/mL"}, {"measurement": "AUC0-24", "setting": "[1]; fed", "value": "47.5 ± 23.0", "unit": "ng·h/mL"}, {"measurement": "AUC0-36", "setting": "[1]; fed", "value": "26.7 ± 13.1", "unit": "ng·h/mL"}, {"measurement": "AUC0-48", "setting": "[1]; fed", "value": "16.9 ± 7.73", "unit": "ng·h/mL"}, {"measurement": "AUC0-72", "setting": "[1]; fed", "value": "7.36 ± 3.10", "unit": "ng·h/mL"}, {"measurement": "AUC0-96", "setting": "[1]; fed", "value": "4.03 ± 1.94", "unit": "ng·h/mL"}, {"measurement": "AUC0-120", "setting": "[1]; fed", "value": "2.41 ± 1.26", "unit": "ng·h/mL"}, {"measurement": "AUC(0-inf)", "setting": "[1]; fasted", "value": 425.3, "unit": "ng·h/mL"}, {"measurement": "AUC(0-t)", "setting": "[1]; fasted", "value": 414.7, "unit": "ng·h/mL"}, {"measurement": "AUCextrap", "setting": "[1]; fasted", "value": 2.77, "unit": "%"}, {"measurement": "Clast", "setting": "[1]; fasted", "value": 0.561, "unit": "ng/mL"}, {"measurement": "Cmax", "setting": "[1]; fasted", "value": 22.8, "unit": "ng/mL"}, {"measurement": "Tlast", "setting": "[1]; fasted", "value": 114.47, "unit": "h"}, {"measurement": "t1/2", "setting": "[1]; fasted", "value": 21.36, "unit": "h"}, {"measurement": "λz", "setting": "[1]; fasted", "value": 0.0348, "unit": "h⁻¹"}, {"measurement": "Tmax", "setting": "[1]; fasted", "value": "8.00 (2.50, 24.00) h"}, {"measurement": "AUC(0-inf)", "setting": "[1]; fed", "value": 4902, "unit": "ng·h/mL"}, {"measurement": "AUC(0-t)", "setting": "[1]; fed", "value": 4811, "unit": "ng·h/mL"}, {"measurement": "AUCextrap", "setting": "[1]; fed", "value": 1.93, "unit": "%"}, {"measurement": "Clast", "setting": "[1]; fed", "value": 2.41, "unit": "ng/mL"}, {"measurement": "Cmax", "setting": "[1]; fed", "value": 474, "unit": "ng/mL"}, {"measurement": "Tlast", "setting": "[1]; fed", "value": 120.00, "unit": "h"}, {"measurement": "t1/2", "setting": "[1]; fed", "value": 24.69, "unit": "h"}, {"measurement": "λz", "setting": "[1]; fed", "value": 0.0292, "unit": "h⁻¹"}, {"measurement": "Tmax", "setting": "[1]; fed", "value": "6.00 (3.00, 12.00) h"}]}, {"compound": "CCCCCc1cc(O)c2c(c1)OC(C)(C)[C@@H]1CCC(C)=C[C@@H]21", "note": "[THC, reference compound]", "values": [{"measurement": "minimal effective dose", "setting": "[2]; IP", "value": 2.5, "unit": "mg/kg"}, {"measurement": "dose equi-effective to […] CBD", "setting": "[2]; dose equivalence analysis", "value": 0.7, "unit": "mg/kg"}, {"measurement": "effect on paclitaxel-induced mechanical sensitivity (in words)", "setting": "[2]; pretreatment 15 minutes prior to each paclitaxel injection, IP", "value": "significantly attenuated"}]}]}
